Laboratory results: patent US20260000656A1, “ANTIFUNGAL AGENTS WITH ENHANCED ACTIVITY IN ACIDIC PH” (Scynexis, Inc., priority 2017, published 2026)
Read-outs that look alike come from different tables or passages of the source.

Assays:
[1] = tested on: acute VVC (Candida spp. vaginal infection); experiment: clinical; type: in vivo, human; details: for mycological eradication / percentage of patients showing an S&S score of 0 or 1 / mean S&S score / percentage of patients with 0-or-1 S&S score / percentage of patients with clinical cure: SCY-078 600 mg dose arm / fluconazole arm; for mean S&S score: scale 0 to 18; for clinical cure / clinical cure, number of patients: Day 10 Test-of-Cure, mITT, SCY-078 600 mg (300 mg BID 1 day, n=27) / fluconazole 150 mg (n=24); for percentage of patients with 0-or-1 S&S score / percentage of patients with clinical cure: Day 25 Follow-Up visit; for patients who received rescue antifungal medication: through Day 25 Follow-Up, SCY-078 600 mg (n=27) / fluconazole (n=24)
Protocol: A Phase 2 study was conducted to evaluate the safety, efficacy, tolerability, and pharmacokinetics of five dose regimens of oral SCY-078 (administered as the citrate salt) compared to oral fluconazole in adult, female patients with moderate-to-severe acute VVC (defined as having a signs and symptoms (S&S) score of 7 or greater). A total of 186 intent-to-treat (ITT) patients were randomized into six different treatment arms as follows: five different dosing regimens of oral SCY-078 and one oral fluconazole treatment arm. The modified intent-to-treat (mITT) population was used for efficacy analysis and included 153 patients with culture-confirmed Candida spp. vaginal infection (positive microscopic examination of vaginal secretions showing yeast, vaginal pH≤4.5) at baseline. The doses of SCY-078 tested ranged from 600 mg to 1800 mg total dose administered over the duration of treatment, and the durations of treatment were 1 or 3 days:
The primary efficacy endpoint was clinical cure, which according to current FDA guidance is defined as complete resolution (score=0) of all signs and symptoms at the Day 10 Test-of-Cure visit without the need of additional antifungal therapy. Secondary endpoints included mycological eradication (negative culture) and a composite endpoint including both clinical cure and mycological eradication. Response was also evaluated based on the percent of patients achieving a noticeable improvement in their signs and symptoms, either by achieving an S&S score of 0 or 1 or an absolute change (reduction) in mean composite S&S score from baseline. An S&S score is based on a patient's reported symptoms (burning, itching, and irritation) and investigator-assessed signs (swelling, redness, and excoriations); each sign and symptom can be absent, mild, moderate, or severe, with a corresponding score from 0 to 3; the total composite scale is 0 to 18 points. Response was further evaluated by assessing the number of patients who received rescue antifungal therapy. Patients were assessed at the Day 10 Test-of-Cure visit and also at a Day 25 Follow-Up visit. The study was not designed to achieve statistically significant differences in any of the evaluated endpoints.

[2] = tested on: vulvovaginal candidiasis (Candida spp.); type: in vivo, human; details: for rate of mycological eradication: SCY-078 combined arms / fluconazole arm; for Therapeutic cure (clinical cure and mycological eradication) / mycological eradication / clinical cure: ITT population; for Therapeutic cure (clinical cure and mycological eradication): Day 24 Test-of-Cure visit; for Therapeutic cure (clinical cure and mycological eradication) / mycological eradication: combined SCY-078 arms (n = 64) / fluconazole 150 mg (n = 32); for mycological eradication / clinical cure: Test-of-Cure visit (Day 24); for clinical cure: combined SCY-078 arms (n = 64, 1250 mg then 750 mg QD for 2 or 4 days) / fluconazole 150 mg single dose (n = 32)
Protocol: As a first step of the feasibility evaluation, a proof-of-concept exploratory trial in 96 patients with moderate to severe acute VVC was conducted. Subjects received SCY-078 tablets orally, administered at a dose of 1250 mg on day 1, followed by 750 mg once a day for 2 or 4 days. A comparator group of patients receiving oral fluconazole at the approved dose (150 mg, single dose) was also included.
This study was a proof-of-concept study conducted to evaluate the safety and efficacy of two dosing regimens of oral SCY-078 (administered as the phosphate salt) in subjects presenting with moderate to severe VVC.
Key criteria for inclusion included: • 1. Subjects with moderate to severe VVC, confirmed by positive potassium hydroxide (KOH) test from a vaginal secretion sample • 2. Three vaginitis episodes in the past year that were either confirmed to be caused by Candida spp. or that responded to antifungal therapy
Subjects were randomized in a 1:1:1 ratio to one of the three treatment arms: Oral SCY-078 loading dose of 1250 mg SCY-078, followed by 750 mg SCY-078 QD for 2 days or for 4 days, or Oral Fluconazole 150 mg for 1 day.
Subjects were evaluated on Day 24 (Test-of-Cure visit), Day 60, Day 90, and 120 days (end of study).
The analyses included clinical cure (all signs and symptoms present at baseline improved by at least two points (e.g., from moderate to absent or from severe to mild); after the study started, the FDA proposed that clinical cure is achieved if all signs and symptoms present at baseline are absent), mycological eradication (a negative culture for the baseline yeast pathogen), and therapeutic cure (both clinical cure and mycological eradication). Clinical cure has been proposed by the FDA as the primary endpoint for assessment of efficacy in VVC.
Ninety-six subjects were enrolled (intent-to-treat (ITT) population), and 70 subjects had cultured-confirmed Candida spp. infection (per protocol (PP) population).

[3] = Day 24, per protocol population, SCY-078 Combined (n = 50) / Fluconazole (n = 20)
[4] = Month 4, SCY-078 Combined (n = 50) / Fluconazole (n = 20)
[5] = Day 24, per protocol population
[6] = Day 24, per protocol population, SCY-078 3-Days arm (n = 24)
[7] = Day 24, per protocol population, SCY-078 5-Days arm (n = 26)
[8] = Month 4, SCY-078 3-Days arm (n = 24)
[9] = Month 4, SCY-078 5-Days arm (n = 26)

Structure (SMILES)	mycological eradication ([1]; Day 10, mITT) [%]	percentage of patients showing an S&S score of 0 or 1 ([1]; Day 10, mITT) [%]	mean S&S score ([1]; Day 10, mITT)	clinical cure [1] [%]	clinical cure, number of patients [1]	mycological eradication ([1]; Day 25) [%]	mean S&S score ([1]; Day 25)	percentage of patients with 0-or-1 S&S score [1] [%]	percentage of patients with clinical cure [1] [%]	patients who received rescue antifungal medication [1] [%]	Clinical Cure (Updated FDA Definition), rate [2, 3] [%]	Clinical Cure, rate [2, 3] [%]	rate of mycological eradication ([2]; Day 24) [%]	Therapeutic cure (clinical cure and mycological eradication) [2] [%]	mycological eradication [2] [%]	clinical cure [2] [%]	Clinical Cure, rate [2, 4] [%]	Recurrences Requiring Antifungal Therapy, rate [2, 4] [%]	“0” Signs and Symptoms, rate [2, 4] [%]	rate of mycological eradication ([2]; Month 4) [%]	further results
OC(Cn1cncn1)(Cn1cncn1)c1ccc(F)cc1F [Fluconazole, reference compound]	63	71	1.8	58	14	38	2.6	58	50	29	55	65	65	56.3	68.8	65.6	65	15	65	60	Therapeutic cure (clinical cure and mycological eradication) ([2]; listed as fluconazole): 56.3%
CC(C)[C@@H](C)[C@@]1(C)CC[C@]2(C)[C@H]3CC[C@@H]4[C@@]5(COC[C@]4(C)[C@@H](OC[C@](C)(N)C(C)(C)C)[C@H](n4ncnc4-c4ccncc4)C5)C3=CC[C@@]2(C)[C@@H]1C(=O)O [SCY-078]	63	70	1.0	52	14	48	0.4	81	70	4	70	76	70	56.3	70.3	78.1	88	4	80	74	% Δ SCY-078 (combined) vs. Fluconazole, Clinical Cure [2, 5]: 11%; % Δ SCY-078 (combined) vs. Fluconazole, Clinical Cure (Updated FDA Definition) [2, 5]: 15%; Clinical Cure (Updated FDA Definition), rate [2, 6]: 70.8%; Clinical Cure, rate [2, 6]: 79.2%; Clinical Cure (Updated FDA Definition), rate [2, 7]: 69.2%; Clinical Cure, rate [2, 7]: 73.1%; % Δ SCY-078 (combined) vs. Fluconazole, Clinical Cure ([2]; Month 4): 23%; % Δ SCY-078 (combined) vs. Fluconazole, Recurrences Requiring Antifungal Therapy ([2]; Month 4): −11%; % Δ SCY-078 (combined) vs. Fluconazole, “0” Signs and Symptoms ([2]; Month 4): 15%; Clinical Cure, rate [2, 8]: 87.5%; Recurrences Requiring Antifungal Therapy, rate [2, 8]: 4.2%; “0” Signs and Symptoms, rate [2, 8]: 79.1%; Clinical Cure, rate [2, 9]: 88.46%; Recurrences Requiring Antifungal Therapy, rate [2, 9]: 3.8%; “0” Signs and Symptoms, rate [2, 9]: 80.7%; GI adverse events (e.g., nausea, diarrhea) ([2]; in vivo): higher rate of GI adverse events
